Measured values reported in patent US20250268857A1 (priority 2020, published 2025).
“And” between values parts separate entries of the source, which are not always exact repeats. Equal entries are not always repeated. Where two headings read alike, the source gives them in different places.

Legend:
[1] = tested on: avian influenza virus (A/whistling swan/Shimane/499/83 (H5N3)); type: cell-based; conditions: reacted 10 minutes at room temperature (20° C.), sterile distilled water control 7.75
[2] = tested on: human influenza viruses and avian influenza viruses with different anti-HN types (H1N1, H1N1 subtype, and H7N7); type: cell-based, influenza virus; conditions: zinc gluconate concentration of 7,500 ppm
feline caliciviruses = type: cell-based, feline calicivirus
[3] = tested on: feline coronavirus (Feline Enteric Coronavirus, WSU 79-1683); assay: Coronavirus inactivation test (titration on Felis catus whole fetus cells); type: cell-based; conditions: 7500 ppm aqueous solution of zinc gluconate; in 30 minutes
Procedure: First, 0.9 ml of 7500 ppm of aqueous solution of zinc gluconate (phosphate buffered saline (PBS) was used for comparison) used as a sample solution and 0.1 ml of feline coronavirus solution (Feline Enteric Coronavirus, WSU 79-1683, 1.3× 10^5 EID50/0.1 ml) were mixed in a vortex mixer and reacted at room temperature (20° C.) for 30 minutes. The mixture solution of the sample and the virus was diluted to 100 times with a 5-times diluted Soybean-Casein Digest Broth with Lecithin & Polysorbate 80 (SCDLP) to stop the reaction and obtain a sample for measuring virus infection values.
Felis catus whole fetus cells used for testing were pre-seeded in 96-well plates and cultured in a CO2 incubator for 4 days. After this, the culture supernatant was removed and replaced with Dulbecco's Modified Eagle's medium containing 1% fetal bovine serum (available from Nissui Pharmaceutical Co., Ltd.).
The wells from which the culture medium had been removed were inoculated with 25 μl of the above sample for measuring virus infection values or with a 10-fold dilution of this in PBS, and the virus was allowed to infect the cells at 37° C. for 1 hour. […] After incubation, the cytopathic effect caused by virus growth was observed under a microscope, and the virus infection titer was calculated by the Reed and Muench method.

[4] = tested on: influenza A virus (Kumamoto/Y5/67 (H2/N2)); parameters: species or system guinea pigs; conditions: guinea pig, in vivo
[5] = type: physicochemical; conditions: samples with 2,000 to 30,000 ppm zinc gluconate
Description: Zinc oxide nanoparticles having a diameter of 50 to 70 nm were dispersed and stirred into an aqueous solution at room temperature while the solution temperature was prevented from exceeding room temperature. The aqueous solution contained 50% of organic acid (gluconic acid in the embodiment) that partially lactonizes when dissolved in water.

For zinc gluconate, the “Virus Infectivity Titer” value ([1]; zinc gluconate 2,000 ppm) was 6.25 log EID50/0.1 ml, the “Virus Infectivity Titer” value ([1]; zinc gluconate 3,750 ppm) was 4.5 log EID50/0.1 ml and the “Virus Infectivity Titer” value ([1]; zinc gluconate 5,000 ppm) was 3.5 log EID50/0.1 ml. For the same substance, the “Virus Infectivity Titer” value ([1]; zinc gluconate 7,500 ppm) was 2.25 log EID50/0.1 ml, the “Virus Infectivity Titer” value ([1]; zinc gluconate 10,000 ppm) was 2.5 log EID50/0.1 ml and the “Virus Infectivity Titer” value ([1]; zinc gluconate 30,000 ppm) was 5.75 log EID50/0.1 ml. The “reduction in infectivity titer” value [2] was “same reduction in infectivity titer”, the “reduction in infectivity titer” value (feline caliciviruses) was 94% and the “titer reduced to (fraction)” value [3] was 1/100. The Infection rate [4] was 4/10 and 1/10 and 3/10 and the pH [5] was 3.6.
